Source: patent US20250154127A1, “BICYCLIC HETEROARYL COMPOUNDS AND USES THEREOF” (ETERN BIOPHARMA (SHANGHAI) CO., LTD., priority 2022, published 2025)

Key:
[1] = biological target: TEAD1(210-426) binding to YAP(50-100) (Homo sapiens, UniProt P28347); experiment: TR-FRET Assay for TEAD1(210-426) Binding to YAP(50-100); conditions: His-TEAD 10 nM, YAP-Biotin peptide 50 nM
In short: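 10 nM His-TEAD1 preincubated 30 min at room temperature with compound (3-fold dilutions, 12 points, 1% DMSO), then 50 nM biotin-YAP peptide added.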

MSTO-211H cells = experiment: Proliferation Assay (CellTiter-Glo Luminescent Cell Viability Assay); assay type: cell-based; conditions: Homo sapiens, 96 hours treatment
In short: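 MSTO-211H cells, 1,500/well in RPMI 1640 with 10% FBS, plated overnight, then treated 96 h with 9-point 3-fold compound series in duplicate (DMSO below 0.5%). Viability by CellTiter-Glo luminescence; inhibition relative to DMSO wells, IC50 by four-parameter fit.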

Chain of TEAD1(210-426) binding to YAP(50-100) (P28347 209-426): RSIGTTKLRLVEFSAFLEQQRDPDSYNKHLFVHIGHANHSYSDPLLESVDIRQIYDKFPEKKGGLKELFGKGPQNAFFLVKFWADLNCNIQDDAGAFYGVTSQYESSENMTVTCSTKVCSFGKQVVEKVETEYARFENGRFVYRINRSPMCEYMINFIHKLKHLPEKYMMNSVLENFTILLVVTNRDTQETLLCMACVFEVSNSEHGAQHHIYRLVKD

| Structure (SMILES) | IC50 [1] | IC50 (MSTO-211H cells) |
| --- | --- | --- |
| O=c1cc(-c2nn(-c3ccc(C(F)(F)F)cc3)c3ccccc23)ccn1Cc1nccc(OCCO)n1 [Compound 81, 1-((4-(2-hydroxyethoxy)pyrimidin-2-yl)methyl)-4-(1-(4-(trifluoromethyl)phenyl)-1H-indazol-3-yl)pyridin-2(1H)-one] | ≤ 0.1 µM | ≤ 1 µM |
| COCCOc1nccc(Cn2ccc(-c3nn(-c4ccc(C(F)(F)F)cc4)c4ccccc34)cc2=O)n1 [Compound 82, 1-((2-(2-methoxyethoxy)pyrimidin-4-yl)methyl)-4-(1-(4-(trifluoromethyl)phenyl)-1H-indazol-3-yl)pyridin-2(1H)-one] | ≤ 0.1 µM | ≤ 1 µM |
| COc1cccc(Cn2ccc(-c3nn(-c4ccc(C(F)(F)F)cc4)c4ccccc34)cc2=O)n1 [Compound 83, 1-((6-methoxypyridin-2-yl)methyl)-4-(1-(4-(trifluoromethyl)phenyl)-1 H-indazol-3-yl)pyridin-2(1H)-one] | ≤ 0.1 µM | ≤ 1 µM |
| O=c1cc(-c2nn(-c3ccc(C(F)(F)F)cc3)c3ccccc23)ccn1Cc1nccc(N2CCOCC2)n1 [Compound 84, 1-((4-morpholinopyrimidin-2-yl)methyl)-4-(1-(4-(trifluoromethyl)phenyl)-1H-indazol-3-yl)pyridin-2(1H)-one] | ≤ 0.1 µM | ≤ 1 µM |
| O=c1cc(-c2nn(-c3ccc(C(F)(F)F)cc3)c3ccccc23)ccn1Cc1nccc(N2CC(O)C2)n1 [Compound 85, 1-((4-(3-hydroxyazetidin-1-yl)pyrimidin-2-yl)methyl)-4-(1-(4-(trifluoromethyl)phenyl)-1H-indazol-3-yl)pyridin-2(1H)-one] | ≤ 0.1 µM | ≤ 1 µM |
| O=c1cc(-c2nn(-c3ccc(C(F)(F)F)cc3)c3ccccc23)ccn1Cc1nccc(N2CCC(O)CC2)n1 [Compound 86, 1-((4-(4-hydroxypiperidin-1-yl)pyrimidin-2-yl)methyl)-4-(1-(4-(trifluoromethyl)phenyl)-1H-indazol-3-yl)pyridin-2(1H)-one] | ≤ 0.1 µM | ≤ 1 µM |
| O=c1cc(-c2nn(-c3ccc(C(F)(F)F)cc3)c3ccccc23)ccn1Cc1nccc(N2CC3(COC3)C2)n1 [Compound 87, 1-((4-(2-oxa-6-azaspiro[3.3]heptan-6-yl)pyrimidin-2-yl)methyl)-4-(1-(4-(trifluoromethyl)phenyl)-1H-indazol-3-yl)pyridin-2(1H)-one] | ≤ 0.1 µM | ≤ 1 µM |
| O=c1cc(-c2nn(-c3ccc(C(F)(F)F)cc3)c3ncccc23)ccn1Cc1cccnc1 [Compound 88, 1-(pyridin-3-ylmethyl)-4-(1-(4-(trifluoromethyl)phenyl)-1H-pyrazolo[3,4-b]pyridin-3-yl)pyridin-2(1H)-one] | ≤ 0.1 µM | ≤ 1 µM |
| O=c1cc(-c2nn(-c3ccc(C(F)(F)F)cc3)c3ccccc23)ccn1Cc1cccc(Cl)n1 [Compound 89, 1-((6-chloropyridin-2-yl)methyl)-4-(1-(4-(trifluoromethyl)phenyl)-1H-indazol-3-yl)pyridin-2(1H)-one] | ≤ 0.1 µM | ≤ 1 µM |
| CO[C@H]1C[C@@H](Nc2ccnc(Cn3ccc(-c4nn(-c5ccc(C(F)(F)F)cc5)c5ccccc45)cc3=O)n2)C1 [Compound 90, 1-((4-(((1s,3s)-3-methoxycyclobutyl)amino)pyrimidin-2-yl)methyl)-4-(1-(4-(trifluoromethyl)phenyl)-1H-indazol-3-yl)pyridin-2(1H)-one] | 0.1 to 1 µM | ≤ 1 µM |
| CO[C@H]1C[C@H](Nc2ccnc(Cn3ccc(-c4nn(-c5ccc(C(F)(F)F)cc5)c5ccccc45)cc3=O)n2)C1 [Compound 91, 1-((4-(((1r,3r)-3-methoxycyclobutyl)amino)pyrimidin-2-yl)methyl)-4-(1-(4-(trifluoromethyl)phenyl)-1H-indazol-3-yl)pyridin-2(1H)-one] | ≤ 0.1 µM | ≤ 1 µM |
| CNc1nccc(Cn2ccc(-c3nn(-c4ccc(C(F)(F)F)cc4)c4ccccc34)cc2=O)n1 [Compound 92, 1-((2-(methylamino)pyrimidin-4-yl)methyl)-4-(1-(4-(trifluoromethyl)phenyl)-1H-indazol-3-yl)pyridin-2(1H)-one] | ≤ 0.1 µM | ≤ 1 µM |
| O=c1cc(-c2nn(-c3ccc(C(F)(F)F)cc3)c3ccccc23)ccn1Cc1ccnc(OCCO)n1 [Compound 93, 1-((2-(2-hydroxyethoxy)pyrimidin-4-yl)methyl)-4-(1-(4-(trifluoromethyl)phenyl)-1H-indazol-3-yl)pyridin-2(1H)-one] | ≤ 0.1 µM | ≤ 1 µM |
| CN(CCO)c1nccc(Cn2ccc(-c3nn(-c4ccc(C(F)(F)F)cc4)c4ccccc34)cc2=O)n1 [Compound 94, 1-((2-((2-hydroxyethyl)(methyl)amino)pyrimidin-4-yl)methyl)-4-(1-(4-(trifluoromethyl)phenyl)-1H-indazol-3-yl)pyridin-2(1H)-one] | ≤ 0.1 µM | ≤ 1 µM |
| O=c1cc(-c2nn(-c3ccc(C(F)(F)F)cc3)c3ccccc23)ccn1Cc1ccnc(N2CC(O)C2)n1 [Compound 95, 1-((2-(3-hydroxyazetidin-1-yl)pyrimidin-4-yl)methyl)-4-(1-(4-(trifluoromethyl)phenyl)-1H-indazol-3-yl)pyridin-2(1H)-one] | ≤ 0.1 µM | ≤ 1 µM |
| Cn1nc(Cn2ccc(-c3nn(-c4ccc(C(F)(F)F)cc4)c4ccccc34)cc2=O)ccc1=O [Compound 96, 2-methyl-6-((2-oxo-4-(1-(4-(trifluoromethyl)phenyl)-1H-indazol-3-yl)pyridin-1(2H)-yl)methyl)pyridazin-3(2H)-one] | ≤ 0.1 µM | 1 to 10 µM |
| CNc1nccc(Cn2ccc(-c3nn(-c4ccc(C(F)(F)F)cc4)c4ncccc34)cc2=O)n1 [Compound 97, 1-((2-(methylamino)pyrimidin-4-yl)methyl)-4-(1-(4-(trifluoromethyl)phenyl)-1H-pyrazolo[3,4-b]pyridin-3-yl)pyridin-2(1H)-one] | ≤ 0.1 µM | ≤ 1 µM |
| CNc1cc(Cn2ccc(-c3nn(-c4ccc(C(F)(F)F)cc4)c4ncccc34)cc2=O)ncn1 [Compound 98, 1-((6-(methylamino)pyrimidin-4-yl)methyl)-4-(1-(4-(trifluoromethyl)phenyl)-1H-pyrazolo[3,4-b]pyridin-3-yl)pyridin-2(1H)-one] | ≤ 0.1 µM | ≤ 1 µM |
| CNc1nccc(Cn2ccc(-c3nn(-c4ccc(C(F)(F)F)cc4)c4nccnc34)cc2=O)n1 [Compound 99, 1-((2-(methylamino)pyrimidin-4-yl)methyl)-4-(1-(4-(trifluoromethyl)phenyl)-1H-pyrazolo[3,4-b]pyrazin-3-yl)pyridin-2(1H)-one] | ≤ 0.1 µM | ≤ 1 µM |
| O=c1cc(-c2nn(-c3ccc(C(F)(F)F)cc3)c3nccnc23)ccn1Cc1nccc(O)n1 [Compound 100, 1-((4-hydroxypyrimidin-2-yl)methyl)-4-(1-(4-(trifluoromethyl)phenyl)-1H-pyrazolo[3,4-b]pyrazin-3-yl)pyridin-2(1H)-one] | ≤ 0.1 µM | ≤ 1 µM |
| O=c1cc(-c2nn(-c3ccc(C(F)(F)F)cc3)c3ncccc23)ccn1Cc1nccc(O)n1 [Compound 101, 1-((4-hydroxypyrimidin-2-yl)methyl)-4-(1-(4-(trifluoromethyl)phenyl)-1H-pyrazolo[3,4-b]pyridin-3-yl)pyridin-2(1H)-one] | ≤ 0.1 µM | ≤ 1 µM |
| O=c1cc(-c2nn(-c3ccc(C(F)(F)F)cc3)c3nccnc23)ccn1Cc1ccnc(NCCO)n1 [Compound 102, 1-((2-((2-hydroxyethyl)amino)pyrimidin-4-yl)methyl)-4-(1-(4-(trifluoromethyl)phenyl)-1H-pyrazolo[3,4-b]pyrazin-3-yl)pyridin-2(1H)-one] | ≤ 0.1 µM | ≤ 1 µM |
| CNc1ccnc(Cn2ccc(-c3nn(-c4ccc(C(F)(F)F)cc4)c4nccnc34)cc2=O)n1 [Compound 104, 1-((4-(methylamino)pyrimidin-2-yl)methyl)-4-(1-(4-(trifluoromethyl)phenyl)-1H-pyrazolo[3,4-b]pyrazin-3-yl)pyridin-2(1H)-one] | 0.1 to 1 µM | ≤ 1 µM |
| COc1ccnc(Cn2ccc(-c3nn(-c4ccc(C(F)(F)F)cc4)c4nccnc34)cc2=O)n1 [Compound 105, 1-((4-methoxypyrimidin-2-yl)methyl)-4-(1-(4-(trifluoromethyl)phenyl)-1H-pyrazolo[3,4-b]pyrazin-3-yl)pyridin-2(1H)-one] | 0.1 to 1 µM | ≤ 1 µM |
| CN(CCO)c1nccc(Cn2ccc(-c3nn(-c4ccc(C(F)(F)F)cc4)c4nccnc34)cc2=O)n1 [Compound 106, 1-((2-((2-hydroxyethyl)(methyl)amino)pyrimidin-4-yl)methyl)-4-(1-(4-(trifluoromethyl)phenyl)-1H-pyrazolo[3,4-b]pyrazin-3-yl)pyridin-2(1H)-one] | ≤ 0.1 µM | ≤ 1 µM |
| CN(CCO)c1ccnc(Cn2ccc(-c3nn(-c4ccc(C(F)(F)F)cc4)c4nccnc34)cc2=O)n1 [Compound 107, 1-((4-((2-hydroxyethyl)(methyl)amino)pyrimidin-2-yl)methyl)-4-(1-(4-(trifluoromethyl)phenyl)-1H-pyrazolo[3,4-b]pyrazin-3-yl)pyridin-2(1H)-one] | ≤ 0.1 µM | ≤ 1 µM |
| Nc1nccc(Cn2ccc(-c3nn(-c4ccc(C(F)(F)F)cc4)c4ncccc34)cc2=O)n1 [Compound 109, 1-((2-aminopyrimidin-4-yl)methyl)-4-(1-(4-(trifluoromethyl)phenyl)-1H-pyrazolo[3,4-b]pyridin-3-yl)pyridin-2(1H)-one] | ≤ 0.1 µM | ≤ 1 µM |
| Nc1ccnc(Cn2ccc(-c3nn(-c4ccc(C(F)(F)F)cc4)c4ncccc34)cc2=O)n1 [Compound 110, 1-((4-aminopyrimidin-2-yl)methyl)-4-(1-(4-(trifluoromethyl)phenyl)-1H-pyrazolo[3,4-b]pyridin-3-yl)pyridin-2(1H)-one] | ≤ 0.1 µM | ≤ 1 µM |
